From the NIST ThermoML archive (doi:10.1021/acs.jced.7b00578)
Several values for one entry are separate records, joined by “and”; a condition that tells them apart may be missing. Identical values can stand only once.

Legend:
[1] = for vapor or sublimation pressure: Closed cell (Static) method; for Normal melting temperature: DTA
[2] = molar heat capacity at constant pressure; conditions: 101.33 kPa, Extra sensitive DSC
[3] = Molar enthalpy of transition or fusion; conditions: Crystal; DSC

CC1COC(=O)O1 (stereo not given) [4-methyl-1,3-dioxolan-2-one]
Liquid
Conditions	molar heat capacity at constant pressure [J/K/mol]	vapor or sublimation pressure
[1], 278.19 K	–	0.00132 kPa
[1], 278.37 K	–	0.00133 kPa
[1], 278.39 K	–	0.00133 kPa
[1], 283.31 K	–	0.00214 kPa
[1], 283.32 K	–	0.00214 kPa
[1], 288.19 K	–	0.00332 kPa
[1], 288.2 K	–	0.00333 kPa
[1], 288.22 K	–	0.00332 kPa
[1], 293.12 K	–	0.00511 kPa
[1], 293.14 K	–	0.00512 kPa
[1], 293.15 K	–	0.00514 kPa and 0.00511 kPa
[1], 298.1 K	–	0.00778 kPa
[1], 298.11 K	–	0.00778 kPa
[1], 298.12 K	–	0.00777 kPa
[1], 303.01 K	–	0.01158 kPa and 0.01155 kPa
[1], 303.03 K	–	0.01156 kPa
[1], 307.94 K	–	0.01701 kPa and 0.01698 kPa
[1], 307.95 K	–	0.01694 kPa and 0.01696 kPa
[1], 312.97 K	–	0.0247 kPa and 0.02472 kPa
[1], 312.98 K	–	0.02474 kPa
[1], 312.99 K	–	0.02479 kPa
[1], 317.91 K	–	0.03529 kPa
[1], 317.92 K	–	0.0353 kPa and 0.03533 kPa and 0.03536 kPa
[1], 322.9 K	–	0.04993 kPa
[1], 322.92 K	–	0.04996 kPa and 0.05002 kPa and 0.05 kPa
[1], 327.8 K	–	0.06936 kPa
[1], 327.81 K	–	0.06935 kPa and 0.06932 kPa and 0.06938 kPa
[1], 332.89 K	–	0.09634 kPa and 0.09635 kPa
[1], 332.91 K	–	0.09643 kPa
[1], 332.92 K	–	0.09645 kPa
[1], 337.83 K	–	0.1311 kPa
[1], 337.84 K	–	0.1311 kPa and 0.1312 kPa
[1], 337.85 K	–	0.1312 kPa
[1], 342.82 K	–	0.177 kPa
[1], 342.83 K	–	0.1772 kPa
[1], 342.84 K	–	0.1773 kPa and 0.1772 kPa
[1], 347.69 K	–	0.2353 kPa
[1], 347.7 K	–	0.2354 kPa
[1], 352.55 K	–	0.3096 kPa
[1], 352.58 K	–	0.3102 kPa
[1], 352.59 K	–	0.3103 kPa
[1], 357.59 K	–	0.4078 kPa
[1], 357.6 K	–	0.4079 kPa
[1], 362.51 K	–	0.529 kPa
[1], 362.53 K	–	0.5293 kPa and 0.5294 kPa and 0.5295 kPa
[2], 262.22 K	162.94	–
[2], 265 K	163.34	–
[2], 270 K	164.16	–
[2], 275 K	164.98	–
[2], 280 K	165.79	–
[2], 285 K	166.61	–
[2], 290 K	167.53	–
[2], 295 K	168.45	–
[2], 300 K	169.37	–
[2], 305 K	170.29	–
[2], 310 K	171.2	–
[2], 315 K	172.23	–
[2], 320 K	173.14	–
[2], 325 K	174.17	–
[2], 330 K	175.19	–
[2], 335 K	176.11	–
[2], 340 K	177.13	–
[2], 345 K	178.15	–
[2], 350 K	179.17	–
[2], 355 K	180.09	–
[2], 357.99 K	180.7	–

O=C1OCCO1 [ethylene carbonate]
Conditions	molar heat capacity at constant pressure [J/K/mol]	vapor or sublimation pressure
[1], 272.67 K, Crystal	–	0.00025 kPa
[1], 272.74 K, Crystal	–	0.00026 kPa
[1], 272.8 K, Crystal	–	0.00025 kPa
[1], 272.88 K, Crystal	–	0.00025 kPa
[1], 278.16 K, Crystal	–	0.00051 kPa and 0.00049 kPa
[1], 278.17 K, Crystal	–	0.00049 kPa
[1], 283.05 K, Crystal	–	0.00087 kPa and 0.00088 kPa and 0.00086 kPa
[1], 288.1 K, Crystal	–	0.00154 kPa and 0.00152 kPa and 0.00151 kPa
[1], 292.98 K, Metastable liquid	–	0.0034 kPa and 0.00338 kPa
[1], 293 K, Metastable liquid	–	0.00341 kPa
[1], 293.01 K, Crystal	–	0.00258 kPa and 0.00256 kPa
[1], 293.02 K, Crystal	–	0.00254 kPa and 0.00256 kPa
[1], 297.98 K, Crystal	–	0.00431 kPa and 0.0043 kPa
[1], 297.99 K, Crystal	–	0.00431 kPa
[1], 297.99 K, Metastable liquid	–	0.00518 kPa and 0.0052 kPa and 0.00521 kPa
[1], 298 K, Metastable liquid	–	0.0052 kPa
[1], 302.82 K, Crystal	–	0.00702 kPa and 0.00697 kPa
[1], 302.83 K, Crystal	–	0.00701 kPa
[1], 302.92 K, Metastable liquid	–	0.0078 kPa and 0.00783 kPa
[1], 307.84 K, Crystal	–	0.01131 kPa
[1], 307.84 K, Metastable liquid	–	0.01153 kPa and 0.01158 kPa and 0.01159 kPa
[1], 307.85 K, Crystal	–	0.01133 kPa and 0.0113 kPa
[1], 307.85 K, Metastable liquid	–	0.01159 kPa
[1], 312.82 K, Liquid	–	0.01692 kPa and 0.01693 kPa
[1], 312.83 K, Liquid	–	0.01694 kPa
[1], 317.76 K, Liquid	–	0.02435 kPa
[1], 317.77 K, Liquid	–	0.02435 kPa and 0.02433 kPa
[1], 322.65 K, Liquid	–	0.03439 kPa and 0.03437 kPa
[1], 322.66 K, Liquid	–	0.03443 kPa
[1], 327.75 K, Liquid	–	0.04874 kPa and 0.04875 kPa
[1], 327.76 K, Liquid	–	0.04872 kPa
[1], 327.77 K, Liquid	–	0.04878 kPa
[1], 332.8 K, Liquid	–	0.06796 kPa and 0.06798 kPa and 0.06797 kPa
[1], 337.66 K, Liquid	–	0.09261 kPa
[1], 337.67 K, Liquid	–	0.09259 kPa and 0.09267 kPa
[1], 337.68 K, Liquid	–	0.09275 kPa
[1], 342.68 K, Liquid	–	0.126 kPa
[1], 342.69 K, Liquid	–	0.1261 kPa and 0.1262 kPa
[1], 342.7 K, Liquid	–	0.1262 kPa
[1], 347.63 K, Liquid	–	0.1694 kPa
[1], 347.65 K, Liquid	–	0.1695 kPa
[1], 347.66 K, Liquid	–	0.1696 kPa
[1], 352.45 K, Liquid	–	0.2235 kPa
[1], 352.46 K, Liquid	–	0.2236 kPa
[1], 352.47 K, Liquid	–	0.2238 kPa
[1], 352.49 K, Liquid	–	0.2241 kPa
[1], 357.49 K, Liquid	–	0.296 kPa
[1], 357.5 K, Liquid	–	0.2961 kPa and 0.2962 kPa and 0.2963 kPa
[1], 362.62 K, Liquid	–	0.3906 kPa
[1], 362.63 K, Liquid	–	0.3906 kPa and 0.3907 kPa
[2], 262.19 K, Crystal	101.89	–
[2], 264 K, Crystal	102.85	–
[2], 266 K, Crystal	104	–
[2], 268 K, Crystal	105.06	–
[2], 270 K, Crystal	106.2	–
[2], 272 K, Crystal	107.35	–
[2], 274 K, Crystal	108.49	–
[2], 276 K, Crystal	109.72	–
[2], 278 K, Crystal	110.87	–
[2], 280 K, Crystal	112.1	–
[2], 282 K, Crystal	113.33	–
[2], 284 K, Crystal	114.57	–
[2], 286 K, Crystal	115.8	–
[2], 288 K, Crystal	117.03	–
[2], 290 K, Crystal	118.26	–
[2], 292 K, Crystal	119.59	–
[2], 294 K, Crystal	120.91	–
[2], 295.68 K, Crystal	121.96	–
[2], 316.43 K, Liquid	139.49	–
[2], 317 K, Liquid	139.58	–
[2], 318 K, Liquid	139.75	–
[2], 319 K, Liquid	139.84	–
[2], 320 K, Liquid	140.02	–
[2], 321 K, Liquid	140.1	–
[2], 322 K, Liquid	140.28	–
[2], 323 K, Liquid	140.37	–
[2], 323.6 K, Liquid	140.46	–

Conditions	Normal melting temperature [°C]
[1], Crystal	35.98

Conditions	Molar enthalpy of transition or fusion [kcal/mol]
[3]	3.23

CC1CCC(=O)O1 (stereo not given) [γ-valerolactone]
Liquid
Conditions	molar heat capacity at constant pressure [J/K/mol]	vapor or sublimation pressure
[1], 238.07 K	–	0.00014 kPa
[1], 238.08 K	–	0.00015 kPa
[1], 238.09 K	–	0.00015 kPa
[1], 243.06 K	–	0.00026 kPa
[1], 243.07 K	–	0.00026 kPa
[1], 248.13 K	–	0.00048 kPa
[1], 253.14 K	–	0.00082 kPa
[1], 258.15 K	–	0.00138 kPa
[1], 263.14 K	–	0.00228 kPa
[1], 268.14 K	–	0.00369 kPa
[1], 273.14 K	–	0.00586 kPa
[1], 273.15 K	–	0.00586 kPa
[1], 273.63 K	–	0.00612 kPa
[1], 273.64 K	–	0.00612 kPa
[1], 278.14 K	–	0.00912 kPa
[1], 283.14 K	–	0.01396 kPa and 0.01395 kPa
[1], 288.14 K	–	0.02098 kPa and 0.02097 kPa
[1], 288.15 K	–	0.021 kPa
[1], 293.13 K	–	0.03106 kPa
[1], 293.14 K	–	0.03111 kPa and 0.03109 kPa
[1], 298.14 K	–	0.04532 kPa and 0.04531 kPa
[1], 303.13 K	–	0.06501 kPa and 0.06502 kPa
[1], 308.14 K	–	0.09212 kPa and 0.09211 kPa
[2], 265.37 K	167.7	–
[2], 270 K	168.6	–
[2], 275 K	169.6	–
[2], 280 K	170.7	–
[2], 285 K	171.81	–
[2], 290 K	172.91	–
[2], 295 K	174.11	–
[2], 300 K	175.31	–
[2], 305 K	176.61	–
[2], 310 K	177.81	–
[2], 315 K	179.11	–
[2], 320 K	180.42	–
[2], 325 K	181.72	–
[2], 330 K	183.02	–
[2], 335 K	184.22	–
[2], 340 K	185.52	–
[2], 345 K	186.72	–
[2], 350 K	187.93	–
[2], 355 K	189.13	–
[2], 358.5 K	189.93	–

Conditions	Normal melting temperature [°C]
[1], Crystal	-34.81

Conditions	Molar enthalpy of transition or fusion [kcal/mol]
[3]	1.7
